Results taken from the supplement of paper PMC10307832.

Columns and labels:
Assay in all cases: relative viability (nuclei count vs DMSO), 5 days (fraction); higher = more cells survive
Motesanib + Navitoclax = compound: CC1(C)CNc2cc(NC(=O)c3cccnc3NCc3ccncc3)ccc21 [Motesanib] + CC1(C)CCC(c2ccc(Cl)cc2)=C(CN2CCN(c3ccc(C(=O)NS(=O)(=O)c4ccc(N[C@H](CCN5CCOCC5)CSc5ccccc5)c(S(=O)(=O)C(F)(F)F)c4)cc3)CC2)C1 [Navitoclax] (partner 0.5 µM)
Method in brief: (§1)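 The day after seeding in 1536-well plates, lung cancer cell lines were treated by pin tool with a single drug, or with a fixed anchor-drug dose together with five library-drug doses (not always all listed) in √10 steps. After 5 days, a combined fix-and-stain solution (final 0.05% Triton X-100, 1% formaldehyde, 1 ug/ml Hoechst) was added. Nuclei counted on 4× images gave relative viability as treated counts over vehicle counts, reported as the median of duplicate plates.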

[1] = compound: C[C@@]1(C(=O)Nc2ccc(F)nc2)CCCN1c1nc(Nc2cc(C3CC3)n[nH]2)c2cccn2n1 + N=C(N)NC(=N)NCCc1ccccc1 [Phenformin] (partner 250 µM)
Method in brief: as §1

Motesanib = compound: CC1(C)CNc2cc(NC(=O)c3cccnc3NCc3ccncc3)ccc21 [Motesanib]
Method in brief: (§2)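 Five library-drug doses, separated by factors of √10, were pinned into 1536-well plates holding lung cancer cell lines after an overnight stay at 37 °C. Cells were fixed, permeabilised and Hoechst-stained in one step after 5 days without medium change, then imaged at 4×. Viability compares treated-well with vehicle-well nuclei, counted in MetaXpress, as a median across plates. Passing plates had control CV below 25% and at least one doubling.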

[2] = compound: C[C@@]1(C(=O)Nc2ccc(F)nc2)CCCN1c1nc(Nc2cc(C3CC3)n[nH]2)c2cccn2n1
Method in brief: as §2

Cell Line | relative viability (Motesanib + Navitoclax; first compound 0.01 µM) | relative viability (Motesanib + Navitoclax; first compound 0.03162 µM) | relative viability (Motesanib + Navitoclax; first compound 0.1 µM) | relative viability (Motesanib + Navitoclax; first compound 0.3162 µM) | relative viability (Motesanib + Navitoclax; first compound 1 µM) | relative viability ([1]; first compound 0.04 µM) | relative viability ([1]; first compound 0.1265 µM) | relative viability ([1]; first compound 0.4 µM) | relative viability ([1]; first compound 1.265 µM) | relative viability (Motesanib; 0.01 µM) | relative viability (Motesanib; 0.03162 µM) | relative viability (Motesanib; 0.1 µM) | relative viability (Motesanib; 0.3162 µM) | relative viability (Motesanib; 1 µM) | relative viability ([2]; 0.04 µM) | relative viability ([2]; 0.1265 µM) | relative viability ([2]; 0.4 µM) | relative viability ([2]; 1.265 µM)
NCI-H3122 | 0.937 | 1.04 | 0.981 | 1.06 | 1.04 | 0.411 | 0.373 | 0.387 | 0.575 | 0.98 | 1.02 | 1.04 | 1.05 | 1.05 | 0.979 | 0.986 | 0.99 | 0.962
HCC-827 | 1.11 | 1.01 | 1.07 | 1.05 | 1.02 | 0.431 | 0.402 | 0.371 | 0.443 | 1.09 | 1.08 | 1.06 | 1.07 | 1.09 | 1.02 | 1.01 | 0.968 | 1.07
SK-LU-1 | 0.611 | 0.695 | 0.925 | 0.919 | 1.13 | 0.476 | 0.396 | 0.361 | 0.409 | 0.979 | 1.05 | 1.12 | 1.16 | 1.14 | 0.979 | 0.938 | 0.854 | 0.918
NCI-H1975 | 1.11 | 1.12 | 1.05 | 1.11 | 1.26 | 0.407 | 0.36 | 0.326 | 0.314 | 0.876 | 0.914 | 0.996 | 0.995 | 0.98 | 0.943 | 0.981 | 0.649 | 0.754
NCI-H1651 | 1.08 | 0.946 | 1.09 | 0.994 | 1 | 0.283 | 0.287 | 0.269 | 0.283 | 1.02 | 0.912 | 0.946 | 0.962 | 0.947 | 0.956 | 0.883 | 0.82 | 0.923
NCI-H441 | 0.706 | 0.729 | 0.627 | 0.641 | 0.796 | 0.405 | 0.35 | 0.369 | 0.264 | 1.02 | 1.06 | 0.981 | 1.08 | 1.16 | 0.719 | 0.549 | 0.664 | 0.703
LCLC-97TM1 | 0.406 | 0.519 | 0.32 | 0.375 | 0.657 | 0.333 | 0.133 | 0.129 | 0.12 | 0.895 | 0.961 | 0.95 | 1.03 | 0.999 | 0.824 | 0.356 | 0.225 | 0.143
NCI-H727 | 0.519 | 0.349 | 0.321 | 0.52 | 0.446 | 0.402 | 0.247 | 0.266 | 0.322 | 0.83 | 1 | 0.9 | 0.974 | 0.849 | 0.677 | 0.38 | 0.36 | 0.414
NCI-H1355 | 0.994 | 0.946 | 0.882 | 1.06 | 0.957 | 0.418 | 0.415 | 0.347 | 0.39 | 1.03 | 1.02 | 0.978 | 1.04 | 1.01 | 0.96 | 0.794 | 0.797 | 0.818
HOP-62 | 1.12 | 0.939 | 1.07 | 1.15 | 1.26 | 0.672 | 0.598 | 0.635 | 0.762 | 1.06 | 1.04 | 1.12 | 1.09 | 1.11 | 1.03 | 0.97 | 0.914 | 1.08
NCI-H2085 | 1.2 | 1.29 | 1.21 | 1.13 | 1.12 | 0.815 | 0.631 | 0.607 | 0.416 | 1.02 | 0.993 | 0.981 | 1.06 | 1.01 | 1.07 | 0.952 | 0.942 | 0.955
